Assay results: patent publication US8293916B2, “Diazole derivatives” (Hoffmann-La Roche Inc., priority 2004, dated 2012)
Read-outs that look alike come from different tables or passages of the source.

Target: T1, human mGlu 5a receptor (Homo sapiens, UniProt P41594)
T1 construct: expressed in transfected cells; host or cells: EBNA cells (transient transfection); cell membrane homogenates
Assay: [3H]MPEP competition binding on membranes of EBNA cells transiently transfected with human mGlu 5a receptor
Method: Cell membrane homogenates were stored at −80° C. until the day of assay where upon they were thawed and resuspended and polytronised in 15 mM Tris-HCl, 120 mM NaCl, 100 mM KCl, 25 mM CaCl2, 25 mM MgCl2 binding buffer at pH 7.4 to a final assay concentration of 20 μg protein/well.
Competition experiments were performed with a fixed concentration of [^3H]MPEP (2 nM) and IC50 values of test compounds evaluated using 11 concentrations (0.3-10,000 nM).
Nonspecific binding was measured in the presence of 10 μM MPEP. The radioactivity on the filter was counted (3 min) on a Packard Top-count microplate scintillation counter with quenching correction after addition of 45 μl of microscint 40 (Canberra Packard S.A., Zürich, Switzerland) and shaking for 20 min.
The Ki value is defined by the following formula: Ki=IC50/[1+L/Kd] in which the IC50 values are those concentrations of the compounds tested which cause 50% inhibition of the competing radioligand ([^3H]MPEP). L is the concentration of radioligand used in the binding experiment and the Kd value of the radioligand is empirically determined for each batch of membranes prepared.

[1] = competition with [3H]MPEP (2 nM), 1 h at 4° C., pH 7.4, Ki=IC50/[1+L/Kd]

T1 sequence (P41594 21-1180 isoform P41594-2 limits assumed): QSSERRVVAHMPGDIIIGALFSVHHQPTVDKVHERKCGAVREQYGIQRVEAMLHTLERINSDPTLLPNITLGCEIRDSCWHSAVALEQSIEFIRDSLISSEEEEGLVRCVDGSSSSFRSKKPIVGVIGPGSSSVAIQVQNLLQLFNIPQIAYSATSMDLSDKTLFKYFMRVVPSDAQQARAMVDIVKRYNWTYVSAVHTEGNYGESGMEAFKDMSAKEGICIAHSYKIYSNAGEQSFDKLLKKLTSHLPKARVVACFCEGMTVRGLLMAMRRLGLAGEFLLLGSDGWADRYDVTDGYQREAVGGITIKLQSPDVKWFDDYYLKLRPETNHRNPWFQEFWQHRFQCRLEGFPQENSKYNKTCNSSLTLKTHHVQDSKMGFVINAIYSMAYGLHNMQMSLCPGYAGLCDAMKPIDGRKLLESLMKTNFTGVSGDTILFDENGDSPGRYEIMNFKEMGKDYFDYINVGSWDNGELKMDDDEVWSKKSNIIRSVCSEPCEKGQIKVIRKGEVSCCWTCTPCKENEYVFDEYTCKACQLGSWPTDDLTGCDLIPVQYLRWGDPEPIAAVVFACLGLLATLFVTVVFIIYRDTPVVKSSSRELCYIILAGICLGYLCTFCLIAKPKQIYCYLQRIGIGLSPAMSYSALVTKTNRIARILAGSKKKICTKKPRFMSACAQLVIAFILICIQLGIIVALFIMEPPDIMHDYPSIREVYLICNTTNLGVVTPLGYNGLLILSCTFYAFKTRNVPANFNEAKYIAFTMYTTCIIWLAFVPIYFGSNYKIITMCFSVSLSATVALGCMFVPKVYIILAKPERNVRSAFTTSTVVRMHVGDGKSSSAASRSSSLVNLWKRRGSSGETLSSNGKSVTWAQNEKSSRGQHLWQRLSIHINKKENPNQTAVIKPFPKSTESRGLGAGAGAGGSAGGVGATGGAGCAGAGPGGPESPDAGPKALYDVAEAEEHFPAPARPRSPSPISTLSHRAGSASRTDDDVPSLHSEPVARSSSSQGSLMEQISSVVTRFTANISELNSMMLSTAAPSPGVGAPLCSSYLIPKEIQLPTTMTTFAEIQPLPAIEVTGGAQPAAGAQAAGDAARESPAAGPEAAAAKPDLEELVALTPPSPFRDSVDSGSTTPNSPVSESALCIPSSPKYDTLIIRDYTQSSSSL

Row | Ki | Ki [1] | Compound
1 | 14 nM |  | Cc1nc(C#Cc2ccnc(Cl)c2)c(C)n1-c1ccc(C(F)(F)F)cc1 [Example 13, 2-Chloro-4-[2,5-dimethyl-1-(4-trifluoromethyl-phenyl)-1H-imidazol-4-ylethynyl]-pyridine]
2 |  | 6 nM | Cc1c(C#Cc2ccnc(Cl)c2)nn(C)c1-c1ccc(F)cc1 [Example 26, 2-Chloro-4-[5-(4-fluoro-phenyl)-1,4-dimethyl-1H-pyrazol-3-ylethynyl]-pyridine]
3 |  | 42 nM | Cc1nc(C#Cc2ccnc(Cl)c2)c(C(F)F)n1-c1ccc(F)cc1 [Example 27, 2-Chloro-4-[5-difluoromethyl-1-(4-fluoro-phenyl)-2-methyl-1H-imidazol-4-ylethynyl]-pyridine]
